Activity calls are given as the source filed them. No cut-off for these calls is given here.
Columns and labels:
[1] = target: T1, Poly [ADP-ribose] polymerase 1 (Homo sapiens, UniProt P09874); assay: Inhibition of PARP1 (unknown origin) at 20 nM relative to control
Histone deacetylase 1 = Histone deacetylase 1 (Homo sapiens, UniProt Q13547); assay: Inhibition of HDAC1 (unknown origin)
MCF7 = assay: Antiproliferative activity against human MCF7 cells assessed as cell growth inhibition by MTT assay; assay type: functional
MDA-MB-231 = assay: Antiproliferative activity against human MDA-MB-231 cells assessed as cell growth inhibition by MTT assay; assay type: functional
K562 = assay: Antiproliferative activity against human K562 cells assessed as cell growth inhibition by MTT assay; assay type: functional
[2] = target: T1, Poly [ADP-ribose] polymerase 1; assay: Inhibition of PARP1 (unknown origin)
[3] = target: T1, Poly [ADP-ribose] polymerase 1; assay: Potency index, ratio of olaparib IC50 to test compound IC50 for inhibition of PARP1 (unknown origin)

T1 sequence (P09874 whole entry): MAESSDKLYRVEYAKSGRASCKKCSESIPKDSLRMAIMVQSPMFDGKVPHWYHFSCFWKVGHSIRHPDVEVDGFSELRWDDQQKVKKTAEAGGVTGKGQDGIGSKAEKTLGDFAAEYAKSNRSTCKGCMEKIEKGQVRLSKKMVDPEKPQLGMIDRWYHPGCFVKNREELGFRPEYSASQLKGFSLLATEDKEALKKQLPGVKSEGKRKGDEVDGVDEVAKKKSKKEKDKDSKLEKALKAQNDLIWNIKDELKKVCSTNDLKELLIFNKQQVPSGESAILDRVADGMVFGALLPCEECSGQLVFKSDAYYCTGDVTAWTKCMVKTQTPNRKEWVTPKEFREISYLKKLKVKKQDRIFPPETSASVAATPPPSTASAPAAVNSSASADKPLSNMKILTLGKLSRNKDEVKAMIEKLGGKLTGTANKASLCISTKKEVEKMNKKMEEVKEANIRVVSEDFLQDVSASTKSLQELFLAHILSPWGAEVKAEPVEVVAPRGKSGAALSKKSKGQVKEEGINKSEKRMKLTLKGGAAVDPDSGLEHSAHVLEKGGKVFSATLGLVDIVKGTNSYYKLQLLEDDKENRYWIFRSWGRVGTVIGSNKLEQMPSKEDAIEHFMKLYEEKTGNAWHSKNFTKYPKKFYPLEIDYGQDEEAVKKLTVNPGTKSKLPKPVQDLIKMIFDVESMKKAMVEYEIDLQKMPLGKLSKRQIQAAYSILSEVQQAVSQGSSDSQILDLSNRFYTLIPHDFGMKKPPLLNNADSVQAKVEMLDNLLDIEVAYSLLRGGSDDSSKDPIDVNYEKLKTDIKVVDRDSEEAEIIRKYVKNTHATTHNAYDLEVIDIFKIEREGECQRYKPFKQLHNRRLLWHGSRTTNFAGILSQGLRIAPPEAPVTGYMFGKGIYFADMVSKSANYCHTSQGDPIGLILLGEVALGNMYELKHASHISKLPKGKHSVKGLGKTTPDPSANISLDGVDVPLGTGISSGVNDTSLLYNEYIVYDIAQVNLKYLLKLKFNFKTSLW
Sequence of Histone deacetylase 1 (Q13547 whole entry): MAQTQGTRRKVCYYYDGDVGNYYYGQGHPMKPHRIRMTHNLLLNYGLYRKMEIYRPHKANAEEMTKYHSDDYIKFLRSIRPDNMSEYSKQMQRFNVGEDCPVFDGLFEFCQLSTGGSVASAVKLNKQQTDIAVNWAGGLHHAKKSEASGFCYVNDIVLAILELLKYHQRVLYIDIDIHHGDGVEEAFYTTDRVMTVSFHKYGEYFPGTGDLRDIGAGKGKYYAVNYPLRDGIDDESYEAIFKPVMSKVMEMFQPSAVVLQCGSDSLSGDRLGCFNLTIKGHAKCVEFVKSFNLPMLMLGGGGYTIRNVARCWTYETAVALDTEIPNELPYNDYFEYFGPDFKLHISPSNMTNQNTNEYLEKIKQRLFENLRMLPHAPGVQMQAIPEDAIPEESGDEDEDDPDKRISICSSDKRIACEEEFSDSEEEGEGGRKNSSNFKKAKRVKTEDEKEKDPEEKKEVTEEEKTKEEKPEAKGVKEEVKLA

Row | inhibition [1] [%] | IC50 (Histone deacetylase 1; read-out: IC50) [nM] | GI50 (MCF7) | GI50 (MDA-MB-231) [nM] | GI50 (K562) | IC50 ([2]; read-out: IC50) [nM] | Ratio IC50 [3] | IC50 (Histone deacetylase 1) | IC50 [2] | Structure (SMILES)
1 | 64.7 | 1000 | inactive | 25400 | – | – | – | – | – | Nc1cc(F)ccc1NC(=O)CCCCNC(=O)c1cc(Cc2n[nH]c(=O)c3ccccc23)ccc1F
2 | 39.4 | 740 | inactive | 61600 | 62400 nM | – | – | – | – | Nc1ccccc1NC(=O)CCCCNC(=O)c1cc(Cc2n[nH]c(=O)c3ccccc23)ccc1F
3 | – | 950 | inactive | 1030 | inactive | 1.81 | – | – | – | Nc1ccc(F)cc1NC(=O)C1CCN(C(=O)c2cc(Cc3n[nH]c(=O)c4ccccc34)ccc2F)CC1
4 | – | 340 | inactive | 4350 | 5620 nM | 4.23 | – | – | – | Nc1ccccc1NC(=O)CCCCCNC(=O)c1cc(Cc2n[nH]c(=O)c3ccccc23)ccc1F
5 | 22.1 | 340 | 11500 nM | 78700 | 2210 nM | – | – | – | – | Nc1cc(F)ccc1NC(=O)c1ccc(CNC(=O)c2cc(Cc3n[nH]c(=O)c4ccccc34)ccc2F)cc1
6 | – | 820 | inactive | 2310 | inactive | 1.94 | 2 | – | – | Nc1ccccc1NC(=O)C1CCN(C(=O)c2cc(Cc3n[nH]c(=O)c4ccccc34)ccc2F)CC1
7 | 49.7 | 890 | inactive | 49200 | 6610 nM | – | – | – | – | Nc1cc(F)ccc1NC(=O)[C@H]1CC[C@H](CNC(=O)c2cc(Cc3n[nH]c(=O)c4ccccc34)ccc2F)CC1
8 | 46.2 | 810 | inactive | 40500 | 14700 nM | – | – | – | – | Nc1cc(F)ccc1NC(=O)CCCCCNC(=O)c1cc(Cc2n[nH]c(=O)c3ccccc23)ccc1F
9 | – | – | 13200 nM | 4230 | inactive | – | – | Not Active | – | O=C(c1cc(Cc2n[nH]c(=O)c3ccccc23)ccc1F)N1CCN(C(=O)C2CC2)CC1 [OLAPARIB]
10 | – | 940 | inactive | 4490 | inactive | 2.58 | – | – | – | Nc1cc(F)ccc1NC(=O)C1CCN(C(=O)c2cc(Cc3n[nH]c(=O)c4ccccc34)ccc2F)CC1
11 | 42.4 | 910 | inactive | 31300 | inactive | – | – | – | – | Nc1ccc(F)cc1NC(=O)CCCCNC(=O)c1cc(Cc2n[nH]c(=O)c3ccccc23)ccc1F
12 | – | – | 1430 nM | 2880 | 450 nM | – | – | – | Not Active | Nc1ccc(F)cc1NC(=O)c1ccc(CNC(=O)/C=C/c2cccnc2)cc1
13 | 41.3 | 340 | 11100 nM | 50400 | 2920 nM | – | – | – | – | Nc1ccccc1NC(=O)[C@H]1CC[C@H](CNC(=O)c2cc(Cc3n[nH]c(=O)c4ccccc34)ccc2F)CC1
14 | 65.9 | 520 | inactive | 13900 | 8130 nM | – | – | – | – | Nc1ccc(F)cc1NC(=O)CCCCCNC(=O)c1cc(Cc2n[nH]c(=O)c3ccccc23)ccc1F
15 | 37.4 | 140 | 1910 nM | 59300 | 408 nM | – | – | – | – | Nc1ccccc1NC(=O)c1ccc(CNC(=O)c2cc(Cc3n[nH]c(=O)c4ccccc34)ccc2F)cc1

From ChEMBL document CHEMBL4627302, “Design, synthesis and anticancer activities of novel dual poly(ADP-ribose) polymerase-1/histone deacetylase-1 inhibitors” (Bioorg Med Chem Lett, 2020)
